The subject of one assay is obese ob/ob mouse. Nature of the assay: Hypolipaemic activity in the obese ob/ob mouse. The class given is in vivo. The procedure:
The products of the invention were tested in vivo in the obese ob/ob mouse, used as a model of obesity-associated insulin resistance.

A further assay deals with AMPK. In words: AMPK activity in a cell model: hepatocytes isolated from rats. The class given is cell-based, rat. As to conditions: 500 μM, after 30 minutes, SAMS peptide phosphorylation with [γ-32P]-ATP. The procedure: AMPK Activity in a Cell Model: Hepatocytes Isolated from Rats
The hepatocytes are isolated according to the technique of Berry and Friend [J. Cell Biol, 43, 506–520 (1969)]. The AMPK activity was measured according to the method described by Davies el al. [Eur. J. Biochem., 186, 123–128 (1989)]. The latter involves phosphorylation starting from [γ-^32P]-ATP of a peptide substrate (SAMS), based on the sequence surrounding the site phosphorylated by the AMPK of the ACC. The reaction for measuring the AMPK activity ends with the deposition of an aliquot of the reaction medium on a phosphocellulose paper (Whatman P81), on which the SAMS peptide is fixed and the radioactivity of which is measured after washing.
By way of example, the compound of Example 4 activates AMPK, after 30 minutes at a concentration of 500 μM, by 312% (compared with the base value), whereas the same concentration of AICA riboside, used as reference, under the same conditions, activates it by 178%.

Here are results for three compounds from patent publication US7098220B2, “Imidazopyridine derivatives, preparation method and pharmaceutical compositions containing same” (Les Laboratoires Servier, priority 2002, dated 2006).

Take `CN(C)C(=N)N=C(N)N` [metformin]: in the assay on obese ob/ob mouse (250 mg/kg per os), the reduction of triglycerides entry is “the same reduction is obtained”.
Regarding `NC(=O)c1ncn([C@@H]2O[C@H](CO)[C@@H](O)[C@H]2O)c1N` [AICA riboside], the “AMPK activation (compared with the base value)” value in the assay with AMPK amounted to 178%.
Consider `Nc1nc2cccnc2n1C1CCCCCC1` [Example 4, 3-Cycloheptyl-3H-imidazo[4,5-b]pyridine-2-amine], for which the reduction of triglycerides result in the assay with obese ob/ob mouse (125 mg/kg per os) is listed as “significantly reduces the triglycerides”. The “AMPK activation (compared with the base value)” value with AMPK came to 312%.
